In PMC10671498, “Antiproliferative and Cytotoxic Properties of Propynoyl Betulin Derivatives against Human Ovarian Cancer Cells: In Vitro Studies” (International Journal of Molecular Sciences, 2023):
Read-outs that look alike come from different tables or passages of the source.

Tests used:
[1] = system: 18Co normal myofibroblasts; assay: SRB cell proliferation assay, 18Co normal myofibroblasts; format: cell-based
Experimental: Next, 18Co cells (ATCC No. CRL-1459™) were cultured in MEM medium containing HEPES buffer, 10% fetal bovine serum, 100 U/mL penicillin, and 100 μg/mL streptomycin (all from Sigma Aldrich).
(§1) Betulin 1 and its derivatives were dissolved in dimethyl sulfoxide (DMSO; Sigma Aldrich) as a 15 mM stock solution. Working solutions were prepared through the dilution of stock solutions with culture medium. The final DMSO concentration in culture media was adjusted to 0.2%. The effect of tested compounds on the proliferation of SK-OV-3 and OVCAR-3 cells was measured using the In Vitro Toxicology Assay Kit, Sulforhodamine B based (Sigma Aldrich). Cells were seeded in 96-well plates (Greiner Bio-One, Kremsmünster, Austria) at an initial density of 3 × 10^3 cells per well in 200 µL of culture medium. After 24 h of incubation, betulin 1 and its derivatives at a concentration range of 0.1 μM to 30 μM were added to the wells. Control cultures were treated with vehicle alone (0.2% DMSO). The incubation periods for cells with test compounds were 1 day, 3 days, and 5 days. After appropriate incubation periods, culture media were removed, and cells were fixed in 10% trichloroacetic acid solution for 60 min at 4 °C. After fixation, the TCA solution was removed, and the plates were washed three times with deionized water (300 μL/well) and dried. At the next step, cells were stained with 0.4% sulforhodamine B for 30 min. The excess dye was removed by washing three times with 1% (vol/vol) acetic acid. The protein-bound dye was dissolved in 200 μL 10 mM Tris base solution. Absorbance was measured at 570 nm and 690 nm (reference wavelength) using the MRX Revelation plate reader (Dynex Technologies, Chantilly, VA, USA).
(§2) GraphPad Prism 10.0.2 (GraphPad Software Inc., San Diego, CA, USA) software was used for calculations and the statistical analysis of the IC50 values (Table 1). IC50 was determined by using the “nonlinear regression” mode, and the “log(inhibitor) vs. normalised response—Variable slope” equation was chosen in GraphPad Prism software for calculations. The obtained data were normalized to run from 100% down to 0%, and logarithms of concentration were used. Graphs (Figure 2, Figure 3, Figure 4, Figure 5 and Figure 8, and Supplementary Figure S1) were also prepared using this software. In the case of the lack of normal distribution or homogeneity of variances, the remaining results were analyzed using a non-parametric Kruskal–Wallis test with multiple comparisons. Post hoc analysis was performed with the non-parametric equivalent of Tukey’s test. A p value of <0.05 was considered statistically significant. Otherwise, a one-way ANOVA followed by a Tukey’s post hoc test was applied. t-tests was used to perform pairwise comparisons between group means. Analysis was performed using Statistica 13.1 software (StatSoft, Tulsa, OK, USA).

[2] = system: OVCAR-3 cells; assay: SRB cell proliferation assay, OVCAR-3; format: cell-based, human; conditions: for IC50: Homo sapiens; for concentration at which antiproliferative activity (decrease in the number of cells) was evident: OVCAR-3, SRB assay, 0.1–30 µM
Experimental: OVCAR-3 cells (ATCC No. HTB-161™) were cultured in RPMI-1640 medium containing HEPES buffer (2.383 g/L), sodium bicarbonate (1.5 g/L), sodium pyruvate (0.11 g/L) supplemented with 20% fetal bovine serum, 10 µg/mL bovine insulin, 100 U/mL penicillin, and 100 μg/mL streptomycin (all from Sigma Aldrich).
as §1, §2

[3] = system: OVCAR-3 cells; assay: DNA fragmentation assay (Cell Death Detection ELISA, cytoplasmic fraction), OVCAR-3; format: cell-based, human; conditions: OVCAR-3, 24 h, 3, 10, 30 µM, among the betulin derivatives
Experimental: (§3) Fragmentation of genomic DNA was determined by means of the Cell Death Detection ELISAPLUS kit (Roche, Basel, Switzerland). This method rests on the immunoenzymatic detection of DNA–histone complexes in the cytoplasmic cell fraction or cell culture supernatants. Cells were plated and cultured in 96-well plates (Greiner Bio-One) at the initial density of 5 × 10^3 cells per well in 100 µL of culture medium. Cells were allowed to attach and grow for 1 day prior to the addition of test reagents. Then, the media were replaced with the working solutions (3 µM, 10 µM, 30 µM), and cells were exposed to compounds 2–6 for 24 h. In some cases, 5 µM cyclosporin A (CsA, an inhibitor of the mitochondrial permeability transition) was added to the cells 30 min before treatment with the betulin derivative. Subsequently, cells were incubated concomitantly with both compounds. After a 24 h incubation period, plates were centrifuged (200× g; 10 min), media were removed, and cells were lysed for 30 min at room temperature. At the next step, the lysates were again spun (200× g; 10 min), and 20 µL of supernatants (cytoplasmic fractions) was moved to the new 96-well streptavidin-coated plate. In one experiment, the presence of mono- and oligonucleosomes was determined in 20 µL samples of centrifuged culture supernatants (media) to detect the permeability of plasma membrane (considered as an indicator of cell necrosis). Then, the sandwich ELISA assay was fulfilled according to the manufacturer’s protocol. Absorbance was measured at 405 nm and 490 nm (reference wavelength), and the enrichment factor of the cytoplasmic (or supernatant) fraction in mono- and oligonucleosomes was calculated according to the formula: EF = absorbance of sample cells/absorbance of control cells.
(§4) A high EF index in the cytoplasmic fraction (resulting from DNA fragmentation while maintaining the tightness of cell membranes) is a typical indicator of the relatively early stage of apoptosis.

[4] = system: OVCAR-3 cells; assay: LDH release assay, OVCAR-3; format: cell-based, human; conditions: OVCAR-3, 24 h
Experimental: (§5) In order to evaluate the cytotoxic effect, the release of LDH into the culture medium using the In Vitro Toxicology Assay Kit, Lactic Dehydrogenase Based (TOX7; Sigma Aldrich) was assessed. SK-OV-3 and OVCAR-3 cells were plated and cultured in 96-well plates (Greiner Bio-One) at the initial density of 5 × 10^3 cells per well in 100 µL of culture medium. The density of the cells was determined in the same manner as in the SRB assay. After 24 h, the media were replaced with the working solutions, which contained appropriate test compounds at concentrations of 3 μM, 10 μM, 30 μM, and control medium (0.2% DMSO). Cells were exposed to the test substances for 24 h. The background control comprised wells without cells with only control medium. To determine the maximal LDH release (high control), half of the control cultures were treated with lysis buffer. Wells with untreated cells were used as the low control of the assay. LDH activity in media was assessed according to the manufacturer’s protocol. The absorbance was measured at wavelengths of 490 nm and 690 nm (background), and the percentage of released enzyme was calculated for cells growing in the presence of compounds according to the formula:Cytotoxicity [%] = [(AT − AL)/(AH − AL)] × 100 where AT is the absorbance of treated wells; AL is low control; and AH is high control (maximal LDH release).
(§6) Cytotoxicity was expressed as a percentage of the released LDH calculated according to the difference between the absorbance of the treated and low control wells divided by the difference between the absorbance of the high control and low control wells.

[5] = system: SK-OV-3 cells; assay: SRB cell proliferation assay, SK-OV-3; format: cell-based, human; conditions: for IC50: Homo sapiens; for concentration at which antiproliferative activity (decrease in the number of cells) was evident: SK-OV-3, SRB assay, 0.1–30 µM
Experimental: This study used ovarian cancer cell lines, which are part of the panel of cell lines used as part of the NCI-60 Human Cell Lines Screen program, characterized by overexpression of the c-erbB2/neu (HER2) receptor [62, 63]. The human ovarian cancer cell lines (SK-OV-3 and OVCAR-3) were purchased from the American Type Culture Collection (ATCC®, Manassas, Virginia, USA). SK-OV-3 cells (ATCC No. HTB-77™) were cultured in McCoy’s 5A medium containing D-glucose (3 g/L), L-glutamine (0.219 g/L), and sodium bicarbonate (2.2 g/L) supplemented with 10% fetal bovine serum, 10 mM HEPES (pH 7.3–7.5), 100 U/mL penicillin, and 100 μg/mL streptomycin (all from Sigma Aldrich).
as §1, §2

[6] = system: SK-OV-3 cells; assay: LDH release assay, SK-OV-3; format: cell-based, human; conditions: SK-OV-3, 24 h, all concentrations (3, 10, 30 μM)
Experimental: as §5, §6

[7] = system: human melanoma cell line A2058; parameters: method as in PMID 28100848; conditions: A2058, 3 μM; cited from earlier work
[8] = system: SK-OV-3 cells; assay: TMRM analysis of mitochondrial membrane potential; format: cell-based, human; conditions: SK-OV-3, 3 h, 30 µM
Experimental: Tetramethylrhodamine methyl ester (Sigma Aldrich) was used for the assessment of changes in the transmembrane potential of mitochondria. TMRM is a fluorescent cationic dye accumulating in mitochondria in a potential-dependent manner. Cell cultures were prepared as described above for acridine orange staining. Cells were exposed to test solutions for 3 h, and then TMRM was added (final concentration 100 nM) followed by incubation for 30 min in the CO2 incubator. Prior to observation, the plates were centrifuged (250× g, 5 min), and the medium was changed to PBS. The cells were analyzed under the Nikon Eclipse TS-100F microscope and photographed.

[9] = system: SK-OV-3 cells; assay: DNA fragmentation assay (Cell Death Detection ELISA, cytoplasmic fraction), SK-OV-3; format: cell-based, human; conditions: SK-OV-3, 24 h, 3, 10, 30 µM
Experimental: as §3, §4

[10] = system: human melanoma cell line C32; parameters: method as in PMID 28100848; conditions: C32, 3 μM; cited from earlier work
[11] = 18Co, 3 days treatment, Neg: negative in the concentration used
[12] = 18Co, 5 days treatment, Neg: negative in the concentration used
[13] = 72 h, OVCAR-3, 3 days treatment, SRB assay, read-out: IC50
[14] = 120 h, OVCAR-3, 5 days treatment, SRB assay, read-out: IC50
[15] = 72 h, SK-OV-3, 3 days treatment, SRB assay, read-out: IC50
[16] = 120 h, SK-OV-3, 5 days treatment, SRB assay, read-out: IC50

Compound	IC50 ([2]; OVCAR-3, 72 h) [nM]	IC50 ([2]; OVCAR-3, 120 h) [nM]	concentration at which antiproliferative activity (decrease in the number of cells) was evident [2] [µM]	IC50 ([5]; SK-OV-3, 72 h) [nM]	IC50 ([5]; SK-OV-3, 120 h) [nM]	IC50 [1, 11]	IC50 [1, 12]	concentration at which antiproliferative activity (decrease in the number of cells) was evident [5] [µM]	IC50 [2, 13] [nM]	IC50 [2, 14] [nM]	IC50 [5, 15] [nM]	IC50 [5, 16] [nM]	further results
C#CC(=O)O[C@H]1CC[C@@]2(C)C(CC[C@]3(C)C2CCC2C4[C@H](C(=C)C)CC[C@]4(COP(=O)(OCC)OCC)CC[C@]23C)C1(C)C (stereo partly shown) [Compound 4, 28-O-diethoxyphosphoryl-3-O-propynoylbetulin]	1880	1450	> 3	1080	1330	–	–	–	–	–	–	–	IC50 ([1]; 72 h): 9470 nM; IC50 ([1]; 120 h): 23700 nM; DNA fragmentation (enrichment factor) [3]: greatest effect; cytotoxicity (released LDH), loss of cell membrane integrity ([4]; 10 μM and 30 μM): loss of cell membrane integrity was also confirmed
C#CC(=O)OC[C@]12CC[C@@H](C(=C)COP(=O)(OCC)OCC)C1C1CCC3[C@@]4(C)CC[C@H](O)C(C)(C)C4CC[C@@]3(C)[C@]1(C)CC2 (stereo partly shown) [Compound 5, 30-diethoxyphosphoryloxy-28-O-propynoylbetulin]	540	600	1	280	290	Neg	Neg	1	–	–	–	–	cytotoxicity (released LDH) ([4]; all concentrations (3, 10, 30 μM)): significant cytotoxic activity; cytotoxicity (released LDH) [6]: strong cytotoxic effect
CC(=O)O[C@H]1C(=O)[C@@]2(C)[C@H]([C@H](OC(=O)c3ccccc3)[C@]3(O)C[C@H](OC(=O)[C@H](O)[C@@H](NC(=O)c4ccccc4)c4ccccc4)C(C)=C1C3(C)C)[C@]1(OC(C)=O)CO[C@@H]1C[C@@H]2O [PTX, Paclitaxel, reference compound]	–	–	–	–	–	Neg	–	–	4.49	2.97	4.39	5.65	IC50 ([1]; 120 h, 18Co, 5 days treatment, Neg: negative in the concentration used, read-out: IC50): 14.8 nM
C#CC(=O)OC[C@]12CC[C@@H](C(=C)C)[C@@H]1[C@H]1CC[C@@H]3[C@@]4(C)CC[C@H](O)C(C)(C)[C@@H]4CC[C@@]3(C)[C@]1(C)CC2 [Compound 2, 28-O-propynoylbetulin]	–	–	≥ 0.3	–	–	Neg	Neg	≥ 0.3	160	190	180	200	inhibition of proliferation [7]: strong inhibition; mitochondrial membrane potential (TMRM fluorescence) [8]: reduced the mitochondrial membrane potential; DNA fragmentation (enrichment factor, internucleosomal DNA fragments) [9]: moderate increases; inhibition of proliferation [10]: strong inhibition
